# Legend:
# [1] = Solubility of gadolinium chelates in water by HPLC analysis; assay type: physicochemical; details: aqueous solution at 20° C.; for Water solubility of chelate: equilibration by shaking for a few hours
# Method: The solubility of the gadolinium chelates in table 2 was measured by HPLC analysis of the concentrations of compound in aqueous solutions at 20° C. after equilibration by shaking for a few hours. […] This indicated the saturation point of the solution.
# [2] = Measurement of longitudinal relaxivity (T1 by inversion recovery method); assay type: physicochemical
# Method: T1 was measured by the inversion recovery method as described by Timothy D. W. Claridge, in “High-Resolution NMR Techniques in Organic Chemistry” Pergamon Amsterdam 1999, 26-30.
# [3] = Stability of gadolinium chelates, spectrophotometric (UV absorbance vs pH) method; assay type: physicochemical; details: chelant with 1 equivalent of gadolinium (III); calculated from UV absorbance as a function of pH
# Method: Stabilities of the gadolinium complexes of the chelates were measured by a spectrophotometric method using the principle that there is a change in UV absorbance of these compounds as the hydroxyl group on the pyridinone ring deprotonates. There is a significant decrease in the wavelength of the UV maximum as the proton is removed. The UV absorbance of the chelants at different pH's was determined to measure the UV absorbance at different degrees of protonation. The measurements were then repeated in the presence of 1 equivalent of gadolinium (III) and the effect on the UV absorbtion as a function of pH measured. A software program was used to analyze the data and calculate the affinity of the chelates for gadolinium.
# [4] = Reference 1; cited from earlier work
Compound,Water solubility of chelate [1] [mg/mL],Gd Chelate STABILITY CONSTANT (LogKGdL) [3],further results
Bis aquo tris(3-hydroxy-1-(2-methoxyethyl)-4-oxo-4H-pyridin-2yl-)carboxyaminoeth-2-yl)amine gadolinium (III) salt [Example 1e],<0.5,–,r1 at 10 MHz ([2]; 10 MHz): 9.7 mM⁻¹ s⁻¹; r1 at 20 MHz ([2]; 20 MHz): 11.6 mM⁻¹ s⁻¹; r1 at 60 MHz ([2]; 60 MHz): 9.5 mM⁻¹ s⁻¹
"O=C(NCCN(CCNC(=O)c1occc(=O)c1O)CCNC(=O)c1occc(=O)c1O)c1occc(=O)c1O [Standard, reference compound]",–,18.650,pGd [4]: 19.27
"COCCn1ccc(=O)c(O)c1C(=O)NCC1CC(CNC(=O)c2c(O)c(=O)ccn2CCOC)CC(CNC(=O)c2c(O)c(=O)ccn2CCOC)C1 (stereo not drawn) [Example 3, Cis, cis 1,3,5,tris((3-hydroxy-1-(2-methoxyethyl)-4-oxo-4H-pyrid-2yl-)carboxyaminomethyl)-cyclohexane]",–,21.287,–
O=C(NC(CCCNC(=O)c1c(O)c(=O)ccn1CCO)(CCCNC(=O)c1c(O)c(=O)ccn1CCO)CCCNC(=O)c1c(O)c(=O)ccn1CCO)c1ccccc1 [Example 12],–,18.284,–
"COCCn1ccc(=O)c(O)c1C(=O)NCCCC(CCCNC(=O)c1c(O)c(=O)ccn1CCOC)(CCCNC(=O)c1c(O)c(=O)ccn1CCOC)NC(=O)c1ccccc1 [Example 11, Tris((3-hydroxy-1-(2-methoxyethyl)-4-oxo-4H-pyridin-2-yl)-carboxyaminopropyl)-phenylcarboxyaminomethane]",–,15.716,–
"Bis aquo tris((3-hydroxy-1-(2,3-dihydroxypropane)-4-oxo-4H-pyrid-2yl-)carboxyaminoeth-2-yl)-amine gadolinium (III) salt [Example 6]",3.4,–,–
"Bis aquo tris((3-hydroxy-1-(2,3,4-trihydroxybutane)-4-oxo-4H-pyridin-2yl-)carboxyaminoeth-2-yl)amine gadolinium (III) salt [Example 7]",–,–,"Water solubility of chelate (kinetic solubility) ([1]; kinetic solubility, some compound precipitates on standing): ~10 mg/ml* *Kinetic solubility, but some compound precipitates on standing"
Bis aquo tris((3-hydroxy-1-(2-(2-hydroxyethoxy)ethyl)-4-oxo-4H-pyridin-2yl-)carboxyaminoeth-2-yl)amine gadolinium (III) salt [Example 5],<1,–,–
"Bis aquo tris((3-hydroxy-1-(2,3,4,5,6-pentahydroxyhexane)-4-oxo-4H-pyridin-2yl-]carboxyaminoeth-2-yl)amine gadolinium (III) [Example 8]",>200,–,–
Bis aquo tris(-3-hydroxy-1-(2-hydroxyethyl)-4-oxo-4H-pyridin-2yl-)carboxyaminoeth-2-yl)-amine gadolinium (III) salt [Example 4],<0.5,17.929,–
